Results taken from patent US20250152580A1, “METHODS FOR TREATING IMMUNE DISEASES” (Ascentage Pharma (Suzhou) co., Ltd., priority 2022, published 2025).
“Also recorded” adds a separate entry of the source.

Test system: TNBS induced inflammatory bowel disease (IBD) model
Assay: TNBS induced inflammatory bowel disease (IBD) model in Balb/c mice
Assay type: in vivo
Details: for colon weight: vehicle 336.8±25.15 mg; for colon length: vehicle 6.26±0.16 cm; for pathological score (colon, H&E): vehicle 10.33±0.35
Excerpt: There are two kinds of IBD: Crohn's disease (CD) and ulcerative colitis (UC). TNBS administration results in a preclinical mouse model replicating clinical Crohn's disease.
Female Balb/c mice (8 weeks old) were obtained from Beijing Vital River Laboratory Animal Co. Ltd. Animals were housed and handled in a temperature-controlled environment with a 12-h light/12-h dark cycle. A total of 50 mice were assigned to 5 groups by randomization based on body weight.
On Day 0, the mice weighing 18-20 g were anesthetized with […] (Easycheck, M2910). The mice were further intra-rectally injected 100 μL 1.5% TNBS solution (final concentration 50% ethanol) in the vehicle group and other treatment groups. For the Sham group, the mice were intra-rectally injected with 50% ethanol at the same volume.
Mice in Group 1 and Group 2 were treated with vehicle for 8 days (po, qd, from day −1 to day 6). Mice in Group 3 were treated with 50 mg/kg Cpd. 4 for 8 days (preventive regimen, po, qd, from day −1 to day 6). Mice in Group 4 were treated with 50 mg/kg Cpd. 4 for 6 days (therapeutic regimen, po, qd, from day 1 to day 6). 50 mg/kg Mesalamine was used as positive control which was orally administered to mice in Group 5 for 8 days (preventive regimen, qd, from day −1 to day 6). The protocols and procedures involving the care and use of animals were approved by the Institutional Animal Care and Use Committee (IACUC) at WuxiApptec (Shanghai, China).
Clinical signs of IBD were assessed every day based on the score of disease activity index (DAI) which was evaluated from three parameters using a scoring system from 0 to 4: stool consistency (0, normal stool; 1, soft but still formed stool; 2, soft and not formed stool; 3, very soft and wet stool; 4, watery diarrhea), bleeding score (0, negative hemoccult; 1, weak positive hemoccult; 2, positive hemoccult; 3, blood trace in stool visible; 4, gross rectal bleeding) and body weight loss (0, no body weight loos; 1, 1-5% body weight loss; 2, 6-10% body weight loss; 3, 11-20% body weight loss; 4, >20% body weight loss).
At the end of induction with TNBS (day 7), the animals were euthanized, dissected and the entire colon was quickly removed and gently cleared of feces.
The entire colon was weighed, and the total length was measured. Colon weight gain and shortening is an indirect marker of inflammation. As expected, colon weight induced by TNBS increased to 336.8±25.15 mg. […] The TNBS-induced colon weight increasement were improved by Cpd. 4 treatment (202.4±3.95 mg for 50 mg/kg Cpd. 4 preventive therapy and 214.4±5.17 mg for 50 mg/kg Cpd. 4 therapeutic therapy) (FIG. 2).
At the end of induction with TNBS, the animals were euthanized, and blood was collected immediately by the heart punctures and used for whole blood cell analysis.
At the end of the study (day 7), the cell suspensions from sham control, model control and Cpd. 4 therapeutic treatment groups were obtained from mesenteric lymph nodes (MLN). Cells were stained with the following florescence-labelled antibodies: APC-Cy7-conjugated anti-mouse CD45, BV510-conjugated anti-mouse CD3e, AF700-conjugated anti-mouse CD8a, BUV395-conjugated anti-mouse CD4, BV421-conjugated anti-mouse CD25, FITC-conjugated anti-mouse Foxp3, BV650-conjugated anti-mouse IFN-γ, BV786-conjugated anti-mouse IL-17A, BB700-conjugated anti-mouse TNF-α, APC-conjugated anti-mouse B220, BV395-conjugated anti-mouse CD3e, BV605-conjugated anti-mouse CD11b, BB700-conjugated anti-mouse CD11c, AF488-conjugated anti-mouse MHCII, BV421-conjugated anti-mouse NK1.1, BV510-conjugated anti-mouse Ly6G, PE-Cy7-conjugated anti-mouse CD107a and PE-CF594-conjugated anti-mouse F4/80. All cells were primarily gated on single and live lymphocytes based on forward scatter (FCS), side scatter (SSC) and live/dead staining buffer. Samples were analyzed on a flow cytometer (BD LSRFortessa) to count the percentage of each subtype of lymphocytes. […]

[1] = 50 mg/kg po qd preventive treatment, day 7
[2] = 50 mg/kg po qd therapeutic treatment, day 7
[3] = 50 mg/kg po qd, Cpd. 4 preventive and therapeutic, mesalamine day −1 to day 6, compared with Vehicle
[4] = Cpd. 4 50 mg/kg po qd, preventive and therapeutic, compared with Vehicle, 50 mg/kg
[5] = mesenteric lymph nodes, flow cytometry, day 7, 50 mg/kg therapeutic treatment, compared with vehicle

O=C(NS(=O)(=O)c1ccc(NC[C@H]2COCCO2)c([N+](=O)[O-])c1)c1ccc(N2CCN(CC3=C(c4ccc(Cl)cc4)CC4(CCC4)CC3)CC2)cc1Oc1cnc2[nH]ccc2c1 [Cpd. 4, (S)-N-((4-(((1,4-dioxan-2-yl)methyl)amino)-3-nitrophenyl)sulfonyl)-2-((1H-pyrrolo[2,3-b]pyridin-5-yl)oxy)-4-(4-((6-(4-chlorophenyl)spiro[3.5]non-6-en-7-yl)methyl)piperazin-1-yl)benzamide]
colon weight (50 mg/kg po qd preventive therapy (day −1 to day 6), day 7): 202.4 ± 3.95 mg
colon length [1]: 7.81±0.2 cm
pathological score (colon, H&E) [1]: 2.70±0.80
colon weight (50 mg/kg po qd therapeutic therapy (day 1 to day 6), day 7): 214.4 ± 5.17 mg
colon length [2]: 7.39±0.12 cm
pathological score (colon, H&E) [2]: 5.00±1.15
disease activity index (DAI), clinical score of IBD (50 mg/kg po qd, Cpd. 4 preventive (day −1 to day 6) and therapeutic (day 1 to day 6) regimens, mesalamine day −1 to day 6, compared with Vehicle): significantly reducing the clinical score; also recorded: significantly reduced DAI
colon length (in words) [3]: increased colon length
colon weight (in words) [3]: significantly decreased colon weight
body weight loss (Cpd. 4 50 mg/kg po qd, preventive and therapeutic regimens, compared with Vehicle, 50 mg/kg): improving body weight loss; also recorded: improved body weight loss
cell number of monocytes in peripheral blood [4]: significantly reduced; also recorded: significantly decreased
cell number of neutrophils in peripheral blood [4]: significantly reduced; also recorded: significantly decreased
anemia (red blood cells and hemoglobin in peripheral blood) (Cpd. 4 50 mg/kg po qd, compared with Vehicle): improved anemia
fibrosis score (Masson's Trichrome staining of colon) (Cpd. 4 50 mg/kg therapeutic treatment, compared with Vehicle): significantly reduced
pathological score (in words) (Cpd. 4 preventive and therapeutic, compared with Vehicle): significantly decreased
percentage of IFN-γ secreting CD4+ T cells (Th1 cells) [5]: significantly reduced
percentage of IL-17A secreting CD4+ T cells (Th17 cells) [5]: significantly reduced
percentage of NK cells (CD45+CD3−B220−NK1.1+) [5]: significantly reduced
percentage of activated NK cells (CD45+CD3−B220−NK1.1+CD107a+) [5]: significantly reduced
percentage of macrophages (CD45+CD3−B220−CD11b+F4/80+) [5]: significantly reduced
percentage of neutrophils (CD45+CD3−B220−CD11B+LY6G+) [5]: significantly reduced
